Results taken from article PMC4099364, “Comparing Binding Modes of Analogous Fragments Using NMR in Fragment-Based Drug Design: Application to PRDX5” (PLoS ONE, 2014).

Target: T1, human peroxiredoxin 5 (PRDX5) (Homo sapiens, UniProt P30044)
T1 construct: 6xHis-tagged, pQE-30, E. coli M15, 15N-labelled for HSQC; reduced with DTT
T1 sequence (P30044 54-214): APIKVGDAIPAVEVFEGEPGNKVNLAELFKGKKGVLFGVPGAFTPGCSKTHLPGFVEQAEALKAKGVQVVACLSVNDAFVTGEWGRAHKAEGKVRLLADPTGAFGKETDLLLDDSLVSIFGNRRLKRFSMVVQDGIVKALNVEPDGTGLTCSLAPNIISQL
Experiment: […]-HSQC NMR titration (combined CSP fit)
Type: binding

In the case of Oc1cccc(-c2ccccc2)c1O [compound 5, 2,3 dihydroxy-biphenyl], the Kd is reported as 390 ± 50 µM.
